The text below walks through data of patent US10561736B1, “Apoptosis inhibitor formulations for prevention of hearing loss” (Spiral Therapeutics, Inc., priority 2019, dated 2020).

Entries after “also recorded” stand apart in the source; their conditions may differ. Where two headings read alike, the source gives them in different places.

Series [1] in a line: cochlear distribution after IT administration (absorption). In kind it is in vivo. The settings on record: rat; for concentration at 24 h: cochlea (cochlear homogenate), other: intratympanic (IT), read-out: mean cochlear LPT99 concentration; for peak mean cochlear LPT99 concentration: 1 hour. From the text: Cochleae were harvested and rinsed at several timepoints after intratympanic injection of drug product. Drug concentration (y axis) in cochlear homogenates is expressed as nanograms LPT99 per gram of cochlear homogenate. • (i) Absorption
LPT99 cochlear distribution after IT administration was studied in rats. […] LPT99 concentration was quantified with an ultra-performance liquid chromatography tandem mass spectrometry (UPLC-ESI/MS/MS) system.

Series [2] can be described thus: GLP acute systemic toxicity study with toxicokinetics, single IP dose. In kind it is in vivo. The settings on record: Sprague-Dawley, plasma, rat. The protocol:
(§1) A GLP acute systemic toxicity study was conducted with LPT99 administered via IP injection in Sprague-Dawley rats. The acute systemic toxicity study was preceded by a non-GLP maximum tolerated dose (MTD) toxicity study, via the same administration and test system, which determined the MTD of LTP99 to be 1000 mg/kg.
(§2) LPT99 was suspended in vehicle [0.5% w/v methylcellulose and 0.1% v/v TWEEN® 80 in Milli-Q water] and administered intraperitoneally to Sprague-Dawley rats as a single dose at the doses of 100 (low—G2/G2TK), 300 (mid—G3/G3TK), and 750 (high—G4/G4TK) mg/kg body weight. The rats in vehicle control groups (G1/G1TK) received the vehicle alone. The dose volume administered was at an equivolume of 10 mL/kg body weight for all groups.
The main toxicity groups consist of 15 rats/sex/group in G1 and G4 groups and 10 rats/sex/group in G2 and G3 groups. The toxicokinetic groups consisted of 6 males and 6 female rats each for the prevention groups, whereas the vehicle control group had 3 male and 3 female rats.

Series [3] relates to BALB/c 3T3 mouse fibroblasts. The experiment in a line: in vitro phototoxicity. In kind it is cell-based. The settings on record: ≤100 μM. How it is done: An in vitro experiment was performed in BALB/c 3T3 mouse fibroblasts to determine the phototoxic potential of LPT99 at concentrations of ≤100 μM in 3T3 L1 cells.
For series [4], the target named is apoptosome complex composed by recombinant Apaf-1, Cytc, deoxyadenosine triphosphate (dATP), and caspase 9 (Homo sapiens, UniProt O14727). The experiment in a line: inhibition of apoptosome complex formation, recombinant proteins. The settings on record: mean ± SD, read-out: apoptosome inhibition (measured as inhibition of caspase 3 activation). Format: biochemical. How it is done: The specificity of LPT99 was tested in vitro on Apaf-1, caspase 3, and caspase 9 (proteins from the apoptotic cascade), and a broad panel of potential pharmacological targets.
Sequence of apoptosome complex composed by recombinant Apaf-1, Cytc, deoxyadenosine triphosphate (dATP), and caspase 9 (O14727 whole entry, one chain of several): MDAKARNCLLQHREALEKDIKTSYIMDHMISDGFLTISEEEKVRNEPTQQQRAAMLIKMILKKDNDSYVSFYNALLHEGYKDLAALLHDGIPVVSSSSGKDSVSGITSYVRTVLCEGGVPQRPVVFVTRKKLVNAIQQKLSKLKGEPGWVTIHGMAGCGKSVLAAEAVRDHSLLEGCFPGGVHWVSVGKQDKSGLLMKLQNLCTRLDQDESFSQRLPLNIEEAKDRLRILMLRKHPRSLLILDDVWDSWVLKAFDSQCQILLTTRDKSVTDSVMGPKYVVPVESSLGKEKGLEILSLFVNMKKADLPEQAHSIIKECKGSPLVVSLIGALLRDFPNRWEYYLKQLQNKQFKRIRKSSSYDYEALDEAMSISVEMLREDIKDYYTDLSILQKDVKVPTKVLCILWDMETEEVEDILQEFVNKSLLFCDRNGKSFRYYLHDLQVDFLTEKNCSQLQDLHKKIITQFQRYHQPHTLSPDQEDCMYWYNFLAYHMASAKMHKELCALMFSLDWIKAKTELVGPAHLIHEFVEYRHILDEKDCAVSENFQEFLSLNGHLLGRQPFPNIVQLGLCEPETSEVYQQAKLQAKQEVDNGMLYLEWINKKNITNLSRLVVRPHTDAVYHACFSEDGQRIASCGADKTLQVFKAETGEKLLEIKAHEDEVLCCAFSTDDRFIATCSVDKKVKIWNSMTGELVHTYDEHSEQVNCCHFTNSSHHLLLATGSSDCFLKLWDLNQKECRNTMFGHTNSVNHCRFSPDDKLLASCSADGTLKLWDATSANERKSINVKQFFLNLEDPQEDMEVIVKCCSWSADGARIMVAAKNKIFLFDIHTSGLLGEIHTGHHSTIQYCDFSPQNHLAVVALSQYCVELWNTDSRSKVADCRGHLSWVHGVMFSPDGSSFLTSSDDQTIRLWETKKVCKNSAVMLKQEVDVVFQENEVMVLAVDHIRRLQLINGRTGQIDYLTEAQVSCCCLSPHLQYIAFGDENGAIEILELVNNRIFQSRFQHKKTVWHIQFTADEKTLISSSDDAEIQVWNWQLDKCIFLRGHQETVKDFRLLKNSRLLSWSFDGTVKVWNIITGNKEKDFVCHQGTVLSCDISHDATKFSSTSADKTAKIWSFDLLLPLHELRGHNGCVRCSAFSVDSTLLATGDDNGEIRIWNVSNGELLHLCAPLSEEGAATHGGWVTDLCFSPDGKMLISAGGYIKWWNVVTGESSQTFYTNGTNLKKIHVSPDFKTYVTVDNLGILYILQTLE
LPT99 inhibited the formation of the apoptosome complex composed by recombinant Apaf-1, Cytc, deoxyadenosine triphosphate (dATP), and caspase 9. This activity was measured as inhibition of caspase 3 activation. […] To evaluate the specificity of the inhibition, an assay of caspase 3 and 9 activation was set up with recombinant proteins. The inhibitions of caspase 3 and 9 were 7.6±14.7 and 5.3±3.5, respectively, for LPT99.

In series [5] the test system is guinea pigs. Put plainly: dermal sensitization range-finding pilot sub-study. In kind it is in vivo, guinea pig. To be noted: topical 50 μl, 200, 400, or 797 μM. The protocol:
A GLP-compliant dermal sensitization study was conducted with LPT99 in guinea pigs. The objective was to assess potential dermal sensitization of LPT99 using the Buehler test (Buehler, Arch Dermatol. 1965, 91, 171-7).
The test article, LPT99, was in a neutral-pH, buffered, isotonic solution containing a thermoreversible compound. The vehicle control was buffered at neutral pH and formulated as for the test article; it contained POLOXAMER® 407, disodium phosphate dodecahydrate hydrogen, sodium dihydrogen phosphate dihydrate, sodium chloride, and water for injection.
In the range-finding pilot substudy, 4 guinea pigs (2 males and 2 females; Charles River, Stone Ridge, N.Y.) were dosed.

In series [6] the test system is guinea pigs. The experiment in a line: dermal sensitization main study (Buehler test). Format: in vivo, guinea pig. The settings on record: topical 797 μM. The protocol: A GLP-compliant dermal sensitization study was conducted with LPT99 in guinea pigs.
The test article, LPT99, was in a neutral-pH, buffered, isotonic solution containing a thermoreversible compound.
The main study consisted of 2 groups of 20 or 10 guinea pigs. […] Group 2 was 5 male and 5 female animals that were not dosed with LPT99 (Group 2) during the induction phase and served as naïve controls; Group 2 was challenged with LPT99 on Day 28. LPT99 was topically administered to the skin in the shaved scapula area in a volume of 50 μL on Study Days 0, 7, and 14 (induction doses), and on Day 28 (challenge dose). These observations and measurements were performed: Clinical observations (daily), Body weights (weekly), Draize scoring (24 and 48 hours after bandage removal on Days 29 and 30), Primary Dermal Irritation Index (PDII) scoring of extent of irritation according to the scale in. The PDII (post-challenge) was calculated for the test article or vehicle by dividing the sum of the Total Irritation Score by the number of observations (e.g., 3 days×6 animals=18 (number of observations).

A short description of series [7]: non-GLP maximum tolerated dose (MTD) toxicity study, IP. To be noted: rat, in vivo, Sprague-Dawley rats. The protocol:
as §2, with “A functional observation battery was conducted with LPT99 administered via IP (intraperitoneal) injection in Sprague-Dawley rats. The study was preceded by a non-GLP maximum tolerated dose (MTD) toxicity study, via the same administration and test system, which determined the MTD of LTP99 to be 1000 mg/kg. LPT99” for “LPT99”, “TWEEN®80” for “TWEEN® 80”
as §1

Another series concerns A549 cells. The experiment in a line: proliferation of non-apoptotic A549 cells. The settings on record: A549 cells cultured with LPT99 up to 6 days; reversible on removal. In kind it is cell-based. The protocol: The effect of LPT99 on proliferation of non-apoptotic cells was studied. A549 cells were cultured in the presence of LPT99 for up to 6 days; the cell number was monitored by flow cytometry, and doubling time was calculated.

The subject of series [8] is noise-induced ABR threshold shift. The experiment in a line: noise trauma ABR threshold study (FIG. 6). The settings on record: TRAUMA+LPT99 group, 10 and 21 days. Format: in vivo.

One may read the inhibition as how much of the control response was suppressed. As usually defined, the MTD is the highest dose tested that stayed within the study's limit of toxicity. A lower MTD goes with a narrow tolerated range. With `COc1ccc2[nH]cc(CCNC(=O)CC3C(=O)N(CCc4ccc(Cl)cc4Cl)CC(=O)N3CCc3cccs3)c2c1` (stereo not drawn) [LPT99, 2-(4-(2,4-dichlorophenethyl)-3,6-dioxo-1-(2-(thiophen-2-yl)ethyl)piperazin-2-yl)-N-(2-(5-methoxy-1H-indol-3-yl)ethyl)acetamide], the concentration at 24 h in [1] (IT 50 μM) stood at 1.8 ng/g; in [1] (IT 100 μM), 13.9 ng/g; in series [1] (IT 200 μM), 13.4 ng/g. Also, the “distribution after IT administration” value in [1] (IT) is given as “distributes locally to the cochlea; also recorded: distributed to cochlea in a dose-dependent manner”. Further, the entries for the “peak mean cochlear LPT99 concentration” value in series [1] (IT 50 μM), in series [1] (IT 100 μM) and in series [1] (IT 200 μM) were 328.5 ng/g cochlea, 491.3 ng/g cochlea and 611.1 ng/g cochlea, respectively. The Tmax in [2] (IP 100 mg/kg/day, female, read-out: Tmax) is 8 h; in [2] (IP 100 mg/kg/day, male, read-out: Tmax), 2 h; in [2] (both sexes, IP, dose levels other than 100 mg/kg/day, both genders, read-out: time to reach peak plasma concentrations (Tmax)), 24 h. In addition, the “cytotoxicity in the presence or absence of ultraviolet-visible irradiation” value in series [3] was “not cytotoxic”. Further, the phototoxicity result in [3] is recorded as “not be phototoxic”. Besides, the inhibition at 10 µM in [4] turned out to be 78.9%. The “Draize scores (erythema and edema)” value in the series with guinea pigs [5] is on record as 0. In addition, the “Irritant Category” value in the series on guinea pigs [6] was “nonirritant (0)”. The “mortality, clinical observations, body weights, or Draize scores” value in the series on guinea pigs [6] is given as “No test-article-related changes”. Besides, the “Draize scores after the challenge dose” value in the series with guinea pigs [6] (24 or 48 hours) was “No Draize scores were >0”. Besides, in the series on guinea pigs [6] (post-challenge), the PDII score is 0. In addition, in [7], the maximal tolerated dose (MTD) came out at 1000 mg/kg. Besides, the “cellular proliferation of non-apoptotic cells” value in the series on A549 cells is “delayed cellular proliferation”. The “noise-induced ABR Threshold shift” value in series [8] is recorded as “back at basal levels”.
